Test results reported in patent US9757375B2, “Compounds that inhibit human DNA ligases and methods of treating cancer” (University of Maryland, Baltimore, priority 2007, dated 2017).
Read-outs that look alike come from different tables or passages of the source. Marks after values point to notes of the source that are not given here.

Columns and labels:
hLigI = molecular target: T1, hLigI (Homo sapiens, UniProt P18858); assay: High-throughput fluorescence-based DNA joining (ligation) assay; format: biochemical
T1 construct: made in house
T1 sequence (P18858 whole entry): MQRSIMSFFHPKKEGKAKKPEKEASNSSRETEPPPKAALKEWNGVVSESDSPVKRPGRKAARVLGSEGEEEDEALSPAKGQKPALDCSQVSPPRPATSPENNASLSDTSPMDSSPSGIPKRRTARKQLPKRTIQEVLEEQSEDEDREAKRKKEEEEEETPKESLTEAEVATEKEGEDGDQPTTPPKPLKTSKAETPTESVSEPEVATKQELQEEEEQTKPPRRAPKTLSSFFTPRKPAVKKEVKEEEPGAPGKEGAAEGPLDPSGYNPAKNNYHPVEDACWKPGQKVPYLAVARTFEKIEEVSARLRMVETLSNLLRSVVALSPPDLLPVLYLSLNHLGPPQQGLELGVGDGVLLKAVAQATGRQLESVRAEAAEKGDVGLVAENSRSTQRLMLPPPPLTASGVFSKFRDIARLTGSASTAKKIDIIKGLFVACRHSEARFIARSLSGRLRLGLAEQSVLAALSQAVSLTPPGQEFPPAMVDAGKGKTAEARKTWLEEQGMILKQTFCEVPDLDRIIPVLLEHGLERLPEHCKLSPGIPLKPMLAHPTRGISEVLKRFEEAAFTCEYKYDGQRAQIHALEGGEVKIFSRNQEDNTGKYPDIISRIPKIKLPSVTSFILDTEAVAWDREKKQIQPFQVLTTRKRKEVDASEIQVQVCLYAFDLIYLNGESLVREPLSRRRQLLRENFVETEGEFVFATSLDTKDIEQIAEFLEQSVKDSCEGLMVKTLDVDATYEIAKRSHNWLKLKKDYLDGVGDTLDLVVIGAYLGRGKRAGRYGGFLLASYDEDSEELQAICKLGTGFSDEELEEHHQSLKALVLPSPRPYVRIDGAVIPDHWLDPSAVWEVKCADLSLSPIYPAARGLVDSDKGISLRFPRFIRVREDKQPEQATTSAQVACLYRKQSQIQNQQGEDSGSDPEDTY
Experimental: (§1) Candidate ligase inhibitors identified by CADD were assayed for their ability to inhibit hLigI and T4 DNA ligase using a high-throughput, fluorescence energy transfer-based DNA joining assay (22). Duplicate reactions (30 μL) containing 10 pmol of nicked DNA substrate and either 0.25 pmol of hLigI or 10 units of T4 DNA ligase were incubated in the presence or absence of 100 μmol/L of the putative inhibitor. DNA binding by the candidate DNA ligase inhibitors was measured by displacement of ethidium bromide from DNA as previously described (30).
(§2) The method for screening compounds comprises testing the compound for the ability to inhibit human DNA ligases I, III and IV with a high throughput fluorescence-based ligation assay. In this assay, phosphodiester bond formation covalently links together two oligonucleotides, one of which is a fluorescent donor AF488 that is 11 nucleotides from the 3′ terminus and the other contains a fluorescence acceptor and quencher, BHQ1 that is 15 nucleotides from the 5′ terminus. When these oligonucleotides are present in separate duplexes and in the same nicked or intact duplex, there is no significant quenching of fluorescence because the donor and acceptor are too far apart. As single-strands neither the AF488 oligonucleotide nor the BHQ1 oligonucleotides have significant secondary structure. However, when these oligonucleotides are ligated together, the resultant single strand forms a stable hairpin structure, in which the AF488 and BHQ1 groups are very close together, resulting in efficient intra-molecular quenching of fluorescence. Thus, in the DNA joining assay, the DNA substrate is denatured after incubation with the DNA ligase and then renatured in the presence of a 20-fold excess of an oligonucleotide that is identical to the ligated strand containing the fluorescent door and acceptor except that it lacks these modifications. Using this assay, DNA joining, which results in reduced fluorescence at 518 nm, can be measured rapidly, quantitatively and with high-throughput using a fluorescence plate reader.
(§3) Applicants developed a novel high throughput fluorescence-based ligation assay by modifying the sequence of the oligos to optimize hairpin formation by the single strand ligated product of the high throughput fluorescence-based ligation assay of Chen et al (22). […] Compound stock solutions, which were 10 mM in 0.5% DMSO, were diluted in 0.5% DMSO. Human DNA ligases I and III were assayed with a nicked DNA substrate whereas as the substrate for human DNA ligase IV was two oligonucleotide duplexes with short complementary single strand ends.

MCF10A cells [1] = assay: MTT cell growth assay; format: cell-based, human; conditions: Homo sapiens, MCF-10A; sections 'high concentrations (~50 μM)' and 'active in vitro that decreased cell growth'; same figures given in μM elsewhere in Table 6; read-out: IC50 MCF10A (head without unit)
Experimental: (§4) The activity of hits from the initial screen was further validated using the MTT assay. Briefly, MCF10A and HCT116 cells were seeded in 96 well plates at 300 and 1200 cells per well, respectively, and allowed to adhere overnight. The following day, serial dilutions of compounds in media were added to the cells in a final volume 200 μl. After incubation for 5 days, MTT reagent (3-(4,5-dimthylthiazol-2-yl)-2,5-diphenyltatrazolium) was added and incubation was continued for 4 h. Formazan crystals generated by reduction of the MTT reagent in mitochondria were solubilized with isopropanol prior to the measurement of absorbance at 560 nm wavelength in a plate reader.
To extend the results of the […] cell culture screening assay, a subset of compounds were tested in larger cultures. Different concentrations of Compounds 67 and 151 were added to asynchronous subconfluent populations of HCT116 and MCF10A cells. Asynchronous subconfluent populations of HCT116 and MCF10A cells were pre-treated with different concentrations of compound 64 prior to the addition of 3 aminobenzamide (2 mM) MMS (100 μM) or cis-platinum (1 μM). After incubation for 5 days, cell growth was measured by the MTT assay (16).

human DNA ligase III = molecular target: T2, human DNA ligase III (Homo sapiens, UniProt P49916); assay: High-throughput fluorescence-based DNA joining (ligation) assay; format: biochemical
T2 sequence (P49916 1-862 isoform P49916-4): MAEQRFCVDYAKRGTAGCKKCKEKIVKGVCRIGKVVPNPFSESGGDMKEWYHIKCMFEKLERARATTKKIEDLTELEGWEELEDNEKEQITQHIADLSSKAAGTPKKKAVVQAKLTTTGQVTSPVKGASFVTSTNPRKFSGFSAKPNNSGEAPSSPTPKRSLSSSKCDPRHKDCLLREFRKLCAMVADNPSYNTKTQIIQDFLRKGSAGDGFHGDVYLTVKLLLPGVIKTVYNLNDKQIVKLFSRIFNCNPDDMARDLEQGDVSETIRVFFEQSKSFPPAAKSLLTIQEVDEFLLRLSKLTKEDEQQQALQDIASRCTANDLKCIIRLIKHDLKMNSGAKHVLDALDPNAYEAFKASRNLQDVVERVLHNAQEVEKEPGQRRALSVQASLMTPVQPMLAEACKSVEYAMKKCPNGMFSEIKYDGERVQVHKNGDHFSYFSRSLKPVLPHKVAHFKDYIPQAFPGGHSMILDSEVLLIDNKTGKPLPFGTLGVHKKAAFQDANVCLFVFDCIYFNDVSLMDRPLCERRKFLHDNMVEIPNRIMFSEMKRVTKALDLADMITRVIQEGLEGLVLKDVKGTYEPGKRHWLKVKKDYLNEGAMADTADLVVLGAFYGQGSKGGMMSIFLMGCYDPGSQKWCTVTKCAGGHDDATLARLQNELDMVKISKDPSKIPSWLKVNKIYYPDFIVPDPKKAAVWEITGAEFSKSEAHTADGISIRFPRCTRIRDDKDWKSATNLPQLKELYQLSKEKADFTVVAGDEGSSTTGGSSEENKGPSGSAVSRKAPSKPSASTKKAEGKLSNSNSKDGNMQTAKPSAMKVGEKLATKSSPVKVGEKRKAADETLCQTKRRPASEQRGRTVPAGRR
From the text: as §2, §3

human DNA ligase IV = human DNA ligase IV (Homo sapiens, UniProt P49917); assay: as above; format: biochemical
Sequence of human DNA ligase IV (P49917 whole entry): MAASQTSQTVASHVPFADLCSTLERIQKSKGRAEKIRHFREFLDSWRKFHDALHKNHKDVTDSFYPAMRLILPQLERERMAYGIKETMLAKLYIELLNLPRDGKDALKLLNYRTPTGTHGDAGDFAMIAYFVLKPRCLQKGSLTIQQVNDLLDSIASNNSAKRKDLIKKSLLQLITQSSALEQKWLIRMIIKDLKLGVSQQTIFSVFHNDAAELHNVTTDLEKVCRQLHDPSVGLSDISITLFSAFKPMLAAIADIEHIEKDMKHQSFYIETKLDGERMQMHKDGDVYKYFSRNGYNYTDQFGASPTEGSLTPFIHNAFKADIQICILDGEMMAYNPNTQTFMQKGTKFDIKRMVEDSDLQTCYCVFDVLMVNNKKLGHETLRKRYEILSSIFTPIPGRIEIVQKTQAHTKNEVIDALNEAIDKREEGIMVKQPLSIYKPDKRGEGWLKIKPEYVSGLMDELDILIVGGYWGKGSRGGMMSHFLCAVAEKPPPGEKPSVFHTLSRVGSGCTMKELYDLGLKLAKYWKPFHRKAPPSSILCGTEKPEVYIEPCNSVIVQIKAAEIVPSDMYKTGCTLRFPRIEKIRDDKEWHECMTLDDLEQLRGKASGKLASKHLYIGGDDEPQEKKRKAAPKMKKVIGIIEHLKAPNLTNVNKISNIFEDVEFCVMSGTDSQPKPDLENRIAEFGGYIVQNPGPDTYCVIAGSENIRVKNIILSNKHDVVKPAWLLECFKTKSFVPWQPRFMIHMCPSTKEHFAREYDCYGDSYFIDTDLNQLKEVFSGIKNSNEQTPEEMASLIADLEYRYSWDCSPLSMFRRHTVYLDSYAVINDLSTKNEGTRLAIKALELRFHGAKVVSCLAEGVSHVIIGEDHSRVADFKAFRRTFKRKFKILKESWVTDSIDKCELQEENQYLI
Sequence of human DNA ligase IV (Q13426 whole entry partner): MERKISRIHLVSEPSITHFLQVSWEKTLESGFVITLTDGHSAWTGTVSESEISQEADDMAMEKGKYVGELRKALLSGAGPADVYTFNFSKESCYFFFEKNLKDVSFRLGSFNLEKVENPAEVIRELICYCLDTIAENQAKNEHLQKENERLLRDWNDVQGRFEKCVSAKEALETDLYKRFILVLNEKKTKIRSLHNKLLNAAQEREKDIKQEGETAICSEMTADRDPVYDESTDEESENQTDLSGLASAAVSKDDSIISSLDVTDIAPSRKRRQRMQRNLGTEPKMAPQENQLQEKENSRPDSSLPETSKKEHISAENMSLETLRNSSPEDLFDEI
From the text: as §2, §3

HCT116 cells [2] = assay: Screen for potentiation of DNA damaging agents (MMS, camptothecin, cis-platinum, 3 aminobenzamide, ionizing radiation); format: cell-based, human; conditions: 1 = no sensitization; for MMS: Ratios of IC50 HCT116: compound alone vs combination with MMS (100 μM)
From the text: The 192 human DNA ligase inhibitors were screened in parallel for effects on proliferation and the ability to potentiate the effects of several DNA damaging agents using two cell human lines, a colon cancer line HCT116 and a normal breast epithelial cell line MCF10A using a Biomek FX Laboratory Automation Workstation as described (23). The DNA damaging agents used, methyl methanesulfonate (MMS), camptothecin, cis-platinum, 3 aminobenzamide and ionizing radiation, are representatives of classes of agents used to treat cancer. Briefly, HCT116 and MCF10A cells were plated in 96 well plates such that the cultures were about 80% confluent after 5 days incubation. Compounds were added to the cultures at either 15 μM or 50 μM 1 day after plating. After incubation for 3 days, cell lysed in a solution containing 1.2% Igepal CA-630 and SYBR green that stains DNA (1:1000, Molecular Probes, Eugene, Oreg.). Subsequently, fluorescence was measured per well. The studies with DNA damaging agents were performed as follows. […] For ionizing radiation, cells were pre-incubated with the compounds at 50 μM for 1 hour prior to exposure to 2 gray of ionizing radiation. Cultures were incubated for 3 days and then treated as above.

HCT116 cells [3] = assay: MTT cell growth assay; format: cell-based, human; conditions: Homo sapiens, HCT-116
Experimental: as §4
After incubation for 5 days, cell growth was measured by the MTT assay (16).

T4 DNA ligase = molecular target: T3, T4 DNA ligase (Enterobacteria phage T4, UniProt P00970); assay: High-throughput fluorescence-based DNA joining assay, non-specific inhibitor control; format: biochemical, bacteriophage T4; conditions: 100 μM; read-out: In vitro % inhib T4 100
T3 construct: purchased NEB
T3 sequence (P00970 1-487): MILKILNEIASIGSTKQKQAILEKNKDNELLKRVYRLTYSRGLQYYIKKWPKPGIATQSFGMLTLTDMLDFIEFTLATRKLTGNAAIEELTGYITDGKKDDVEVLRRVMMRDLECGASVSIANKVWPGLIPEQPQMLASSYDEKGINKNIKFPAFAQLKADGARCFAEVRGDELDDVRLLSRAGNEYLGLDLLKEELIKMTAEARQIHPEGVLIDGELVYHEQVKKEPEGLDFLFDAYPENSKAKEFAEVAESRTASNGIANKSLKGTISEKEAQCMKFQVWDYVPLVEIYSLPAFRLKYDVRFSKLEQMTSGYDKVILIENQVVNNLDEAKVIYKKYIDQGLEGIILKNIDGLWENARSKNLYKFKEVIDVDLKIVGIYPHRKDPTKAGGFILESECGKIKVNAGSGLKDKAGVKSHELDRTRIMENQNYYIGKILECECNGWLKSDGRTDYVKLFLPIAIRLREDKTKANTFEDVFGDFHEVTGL
Experimental: as §1
In addition, to identify compounds that may be non-specific inhibitors of DNA joining, the 192 compounds were also assayed for their ability to inhibit bacteriophage T4 DNA ligase, an enzyme that utilizes the same reaction mechanism as hLigI, has similar adenylation and OB-fold domains but lacks a DBD domain. (6) Although this is also an ATP-dependent DNA ligase, it lacks the domain containing the binding pocket targeted by the in silico screen. Compounds that inhibited T4 DNA ligase were eliminated as non-specific inhibitors that most likely bind to the DNA.

[4] = tested on: MCF7, HCT116, HeLa, and MCF10A cells; assay: Survival assay on cell panel (FIG. 9); format: cell-based, human; conditions: Homo sapiens; cell line not stated
From the text: FIG. 9. […] A, effect of L67 (left) and L189 (right) on the survival of MCF7 (Δ), HCT116 (□), HeLa (⋄), and MCF10A (upsidedown triangle) cells. B, normal breast epithelial MCF10A cells (open symbols) and breast cancer MCF7 cells (filled symbols) in the absence (circles) or presence of 3 μmol/L of L67 (squares) were exposed to increasing concentrations of MMS (left). Normal breast epithelial MCF10A cells (open symbols) and colon cancer HCT116 cells (filled symbols) in the absence (circles) or presence of 20 μmol/L of L189 (squares) were exposed to increasing doses of ionizing radiation (right). C, hLigI (I), hLigIIIα (III), and hLigIV (IV) were detected in extracts (400 μg) of the indicated cell lines by immunoblotting. To control for extract loading β-actin was also detected by immunoblotting.
For survival assays, cells were plated in 6 well plates and grown either in the absence or presence of ligase inhibitors. Where indicated, either MMS (0-50 μM) was added to the medium or the cells were irradiated in a Cs-137 irradiator (0-2.5 Gy). After two weeks, colonies were stained with crystal violet (Sigma) and then counted.

MCF10A cells [5] = assay: Screen for potentiation of DNA damaging agents (MMS, camptothecin, cis-platinum, 3 aminobenzamide, ionizing radiation); format: cell-based, human; conditions: compound alone vs combination with 3-AB (2 mM); 1 = no sensitization
From the text: The 192 human DNA ligase inhibitors were screened in parallel for effects on proliferation and the ability to potentiate the effects of several DNA damaging agents using two cell human lines, a colon cancer line HCT116 and a normal breast epithelial cell line MCF10A using a Biomek FX Laboratory Automation Workstation as described (23). The DNA damaging agents used, methyl methanesulfonate (MMS), camptothecin, cis-platinum, 3 aminobenzamide and ionizing radiation, are representatives of classes of agents used to treat cancer. Briefly, HCT116 and MCF10A cells were plated in 96 well plates such that the cultures were about 80% confluent after 5 days incubation. Compounds were added to the cultures at either 15 μM or 50 μM 1 day after plating. After incubation for 3 days, cell lysed in a solution containing 1.2% Igepal CA-630 and SYBR green that stains DNA (1:1000, Molecular Probes, Eugene, Oreg.). Subsequently, fluorescence was measured per well. The studies with DNA damaging agents were performed as follows. […] Cultures were incubated for 3 days and then treated as above.

[6] = read-out: % of inhibition @ 100 μM (Helen's data) hLigIII
[7] = cell growth, compound alone, read-out: IC50 (μM) HCT116

Row | SMILES | inhibition at 100 µM (hLigI; 100 μM, read-out: % of inhibition @ 100 μM (Helen's data) hLigI) [%] | IC50 (MCF10A cells [1]) [µM] | inhibition at 100 µM (human DNA ligase III; [6]) [%] | inhibition at 100 µM (human DNA ligase IV; 100 μM, read-out: % of inhibition @ 100 μM (Helen's data) hLigIV) [%] | MMS: Ratios of IC50 HCT116 (HCT116 cells [2]) | IC50 (HCT116 cells [3]; [7]) [µM] | IC50 (HCT116 cells [3]; sections 'high concentrations (~50 μM)' and 'active in vitro that decreased cell growth', same figures given in μM elsewhere in Table 6, read-out: IC50 HCT116 (head without unit)) [µM] | inhibition at 100 µM (T4 DNA ligase) [%] | % activity Inhibition hLigI 100 uM (hLigI; 100 uM) | inhibition at 100 µM (hLigI; 100 μM, read-out: In vitro % inhib hLigI 100) [%] | inhibition at 100 µM (human DNA ligase III; 100 μM, read-out: In vitro % inhib hLigIII 100) [%] | inhibition at 100 µM (human DNA ligase III; 100 uM, Ø not defined (0 in Table 5A), read-out: % activity Inhibition hLigIII 100 uM) [%] | inhibition of human DNA ligase III, in words (human DNA ligase III; in vitro screen) | inhibition at 100 µM (human DNA ligase IV; 100 μM, read-out: In vitro % inhib hLigIV 100) [%] | % activity Inhibition hLigIV 100 uM (human DNA ligase IV; 100 uM, Ø not defined (0 in Table 5A)) | EC50 [4] [µM] | inhibition at 100 µM (hLigI; read-out: % of inhibition @ 100 μM (Helen's data) hLigI) [%] | inhibition at 100 µM (human DNA ligase IV; read-out: % of inhibition @ 100 μM (Helen's data) hLigIV) [%] | IC50 ratios of non- and 3-AB treated cells MCF10A (MCF10A cells [5]) | IC50 ratios of non- and 3-AB treated cells HCT116 (HCT116 cells [2]; compound alone vs combination with 3-AB (2 mM))
1 | O=C(COC(=O)c1ccc2ccccc2c1O)c1cccs1 [Compound 214] | < 20 | > 50 | 42 | 40 | ID (2) | 10 to 50 | 10 to 50 | – | – | – | – | – | – | – | – | – | – | – | – | –
2 | N#Cc1cn(CCCCCCCc2[nH]c(=O)[nH]c(=O)c2C#N)c(=O)[nH]c1=O [Compound 209] | – | – | – | – | – | – | – | 0 | Ø | 0 | 71 ± 3 | 70.5 ± 2.6 | specific for DNA ligase III | 0 | Ø | > 100 | – | – | – | –
3 | O=C1NC(=S)NC(=O)C1=NNc1cccc(C(=O)O)c1 [Compound 198] | – | > 50 | < 20 | – | 2** | > 50 | – | – | – | – | – | – | – | – | – | – | < 20 | < 20 | 2** | 1
